Entries after “also recorded” stand apart in the source; their conditions may differ.
Experiments:
[1] = system: lipid rafts on Raji cells; test: fluorescence microscopy colocalisation with lipid raft markers; assay type: cell-based; settings: 60 min at 37C, APT2104 with endogenous CD59, APT2105 and APT070 with FITC-CTB
Raji cells = test: confocal microscopy of intracellular localization; assay type: cell-based; settings: confocal microscope, added singly or with raft markers
Method: For confocal microscopy, cells were treated with a variety of compounds and antibodies as described above. The cells were fixed and mounted as described and visualised using an Axiophot microscope (Carl Zeiss) coupled to a Colour Coolview CCD colour camera. Filter settings for the simultaneous detection of red and green fluorescence were used. The digital images were processed using Photoshop software (Adobe Systems). Cell images were obtained that visualised either the surface of the cell or cell sections.
This example follows the same procedure as described in example 13 with the following modifications. In certain experiments, lipid raft targeted compounds were added to the cells either singly, or in combination with other compounds. The compounds were then visualized with fluorescent antibodies or in the case of APT2104 and APT2105 by their intrinsic fluorescence, in each case using a confocal microscope as described in methods.

[2] = system: classical pathway-mediated haemolysis of sheep erythrocytes; settings: described in WO 98/02454; cited from earlier work
[3] = system: complement-mediated lysis by human serum; test: haemolytic assay (1:400 dilution of human serum); assay type: cell-based; settings: read-out: concentration required to bring about 50% inhibition of lysis (IH50)
Text: APT530 is a protein that comprises the short consensus repeats 1,2,3 and 4 of human CD55 (decay accelerating factor, DAF), with a carboxyl terminal cysteine residue expressed in a recombinant form in E. coli cells. cDNA that encoded human DAF mRNA was generated from total brain RNA as described in Example 9. A plasmid to encode APT530 was generated by PCR using the pUC-DAF plasmid as template. Primers were designed to amplify the region of the DAF gene encoding amino acids 35-285 (SCR1-4). The 5′ primer incorporated an NdeI restriction enzyme site, and a codon specifying glutamine, thereby introducing an amino terminal methionine-glutamine amino acid pair. The 3′ primer added a carboxyl terminal cysteine residue and incorporated an EcoRI restriction enzyme site. The PCR product was cloned into the pUC57/T T-vector as described, sequenced, the insert excised with NdeI and EcoRI, and ligated into pET266 (Novagen, Madison, USA). The product of this ligation is the plasmid pET99-01, which expresses DAF (SCR1-4). pET99-01 DNA was introduced into E. coli HAMS113 (see methods) and expression of the recombinant protein induced as described in Example 1. The expression of APT530 was analysed by SDS-PAGE (described in methods). […] Refolded […] was analysed by SDSPAGE, Western blot and the effectiveness of the protein in a haemolytic assay (described in methods). […]

[4] = system: complement-mediated lysis of guinea pig erythrocytes by human serum; test: C5b6-initiated reactive lysis of erythrocytes; assay type: cell-based; settings: reactive lysis assay
Method: C56 euglobulin was an essential reagent that was used for the C5b6-initiated reactive lysis of erythrocytes. C56 euglobulin was generated in and purified from some acute-phase sera from post-trauma individuals (such as sports injuries, surgery or childbirth). Blood was drawn from donors in the acute phase of inflammation and allowed to clot at room temperature. To each 10 mls of serum, 0.5 mls of yeast suspension was added and the mixture incubated overnight on a rotator at room temperature. The serum was centrifuged to remove the yeast and dialysed against 0.02M Na/K phosphate, pH 5.4. The precipitate (containing the C56 euglobulin) was collected by centrifugation and redisolved in 0.01M Na/K phosphate/0.05M NaCl, pH7.0 containing 25% v/v glycerol.
Guinea pig erythrocytes (TCS Microbiological, UK) were washed twice in PBS and resuspended to 5% by volume in PBS/0.05% CHAPS. 50 microL of these cells were placed in the wells of a round-bottomed microtitre plate. Samples to be tested were diluted in PBS/0.05% CHAPS and 50 microL of these test solutions then added to the wells containing the guinea pig erythrocytes. The plate was then incubated at 37 degrees Celsius for 20 minutes to allow binding of the samples to the erythrocytes. […] 100 microL of the supernatant was transferred to a clear flat bottomed microtitre plate and the absorbance at 410 nm measured spectroscopically. […]

Molecule | co-localisation with lipid raft markers (FITC-CTB / endogenous CD59) [1] | intracellular localization (intracellular fluorescence) (Raji cells) | IC50 [3] | further results
APT070: residues 1-196 of CR1 ([SCR1-3]-Cys) derivatised with myristoyl cationic peptide MSWP-1; WO 98/02454 example 8 [reference compound] | co-localise; also recorded: discrete punctate pattern | intracellular fluorescence was seen |  | anti-complement activity, potency relative to [SCR1-3]-Cys [2]: 100-1000 fold
N-Myristoyl Gly-Ser-Ser-Lys-Ser-Pro-Ser-Lys-Lys-Lys-Lys-Lys-Lys-Pro-Gly-Glu-Cys(S-succinimido Alexafluor™546 C5)-NH2 [APT2105] | co-localise; also recorded: discrete punctate pattern | intracellular fluorescence was seen |  | 
N-Myristoyl-Gly-Ser-Ser-Lys-Ser-Pro-Ser-Lys-Lys-Lys-Lys-Lys-Lys-Pro-Gly-Glu-Cys(S-succinimido Alexafluor™488 C5)-NH2 [APT2104] | co-localise; also recorded: discrete punctate pattern | intracellular fluorescence was seen |  | 
APT530: short consensus repeats 1,2,3 and 4 of human CD55 (DAF) with a carboxyl terminal cysteine, expressed in E. coli (SEQ ID No: 10) (protein) MQDCGLPPDVPNAQPALEGRTSFPEDTVITYKCEESFVKIPGEKDSVICLKGSQWSDIEEFCNRSCEVPTRLNSASLKQPYITQNYFPVGTVVEYECRPGYRREPSLSPKLTCLQNLKWSTAVEFCKKKSCPNPGEIRNGQIDVPGGILFGATISFSCNTGYKLFGSTSSFCLISGSSVQWSDPLPECREIYCPAPPQIDNGIIQGERDHYGYRQSVTYACNKGFTMIGEHSIYCTVNNDEGEWSGPPPECRGC |  |  | ~40 nM | 
APT632: soluble CD59 from human urine (u-hCD59, Seq. ID No. 1) thiolated with 2-iminothiolane and linked to APT542 (conjugate, listed as Homo sapiens, thiolated with 2-iminothiolane, linked to APT542) LQCYNCPNPTADCKTAVNCSSDFDACLITKAGLQVYNKCWKFEHCNFNDVTTRLRENELTYYCCKKDLCNFNEQLEN |  |  |  | concentration at which guinea pig erythrocytes are protected from complement-mediated lysis by human serum [4]: greater than 0.5 nM
APT2334: APT530 linked to a single molecule of APT542 (MSWP-1) (SEQ ID No: 11) (conjugate, APT530 linked to APT542 (MSWP-1)) MQDCGLPPDVPNAQPALEGRTSFPEDTVITYKCEESFVKIPGEKDSVICLKGSQWSDIEEFCNRSCEVPTRLNSASLKQPYITQNYFPVGTVVEYECRPGYRREPSLSPKLTCLQNLKWSTAVEFCKKKSCPNPGEIRNGQIDVPGGILFGATISFSCNTGYKLFGSTSSFCLISGSSVQWSDPLPECREIYCPAPPQIDNGIIQGERDHYGYRQSVTYACNKGFTMIGEHSIYCTVNNDEGEWSGPPPECRGCCDGPKKKKKKSPSKSSG |  |  | 0.2 nM | 

Source: US20040043432A1, “Compounds targeted to cellular locations” (priority 2000, published 2004)
